Legend:
[1] = target: HIS-TGF-βR1 T204D (Homo sapiens (Human), UniProt P36897, T204D); assay: HTRF probe displacement assay, HIS-TGF-βR1 T204D; conditions: read-out: TGFbr1 IC50, 1 nM HIS-TGF-βR1 T204D, 1 hour at room temperature
[2] = system: GDF8 signaling (GDF pSMAD, MPC11); assay: AlphaScreen SureFire SMAD3 (p-Ser423/425) assay, inhibition of GDF8 signaling; type: cell-based; conditions: Mus musculus, MPC-11, inhibition of GDF8 signaling, p-SMAD3 readout
[3] = system: TGF-β signaling (TGF-β pSMAD, MPC-11); assay: AlphaScreen SureFire SMAD3 (p-Ser423/425) assay, inhibition of TGF-β signaling; type: cell-based; conditions: Mus musculus, MPC-11, inhibition of TGF-β signaling, p-SMAD3 readout

HIS-TGF-βR1 T204D, sequence (P36897 34-503 T204D): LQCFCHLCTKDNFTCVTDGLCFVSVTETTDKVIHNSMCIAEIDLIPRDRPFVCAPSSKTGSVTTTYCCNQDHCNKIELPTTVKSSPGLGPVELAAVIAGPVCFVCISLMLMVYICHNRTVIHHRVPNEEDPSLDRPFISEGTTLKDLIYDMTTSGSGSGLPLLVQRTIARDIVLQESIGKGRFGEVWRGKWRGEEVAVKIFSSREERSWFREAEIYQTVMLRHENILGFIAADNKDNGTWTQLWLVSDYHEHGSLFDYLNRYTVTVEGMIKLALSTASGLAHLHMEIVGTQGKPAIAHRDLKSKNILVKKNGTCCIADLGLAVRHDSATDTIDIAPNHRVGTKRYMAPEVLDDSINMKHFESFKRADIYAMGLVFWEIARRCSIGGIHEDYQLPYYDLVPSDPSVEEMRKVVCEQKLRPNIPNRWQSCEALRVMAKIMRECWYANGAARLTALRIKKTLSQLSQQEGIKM

| SMILES | IC50 [2] [nM] | IC50 [3] [nM] | IC50 [1] [nM] |
| --- | --- | --- | --- |
| Cc1nc(-c2ccc(F)cc2)c(-c2ccc3ncc(C#N)n3c2)n1CC(F)F [272A′, 6-(1-(2,2-difluoroethyl)-4-(4-fluorophenyl)-2-methyl-1H-imidazol-5-yl)imidazo[1,2-a]pyridine-3-carbonitrile] | – | – | 251 |
| NC(=O)c1cnc2ccc(-c3c(-c4ccc(F)c(Cl)c4)ncn3[C@H]3C[C@@H](O)C3)nn12 [140′, 6-(4-(3-chloro-4-fluorophenyl)-1-((1s,3s)-3-hydroxycyclobutyl)-1H-imidazol-5-yl)imidazo[1,2-b]pyridazine-3-carboxamide] | – | – | 2.8 |
| Cc1nc(-c2ccc(F)c(C)c2)c(-c2ccc3nccn3c2)[nH]1 [Compound 74, 6-(4-(4-Fluoro-3-methylphenyl)-2-methyl-1H-imidazol-5-yl)imidazo[1,2-a]pyridine] | 200 | 1410 | – |
| Cc1nc(-c2ccc(F)cc2)c(-c2ccc3ncn(C)c3c2)[nH]1 [Compound 79, 6-(4-(4-Fluorophenyl)-2-methyl-1H-imidazol-5-yl)-1-methyl-1H-benzo[d]imidazole] | 110 | 850 | – |
| CCc1nc(-c2cccc(C)c2)c(-c2ccc3nccnc3c2)[nH]1 [Compound 118, 6-(2-Ethyl-4-(m-tolyl)-1H-imidazol-5-yl)quinoxaline] | 230 | 1390 | – |
| Cc1nc(-c2cc(F)c(F)c(F)c2)c(-c2ccc3ncccc3c2)[nH]1 [Compound 95, 6-(2-Methyl-4-(3,4,5-trifluorophenyl)-1H-imidazol-5-yl)quinoline] | 300 | 1880 | – |
| CCc1nc(-c2cccc(C)c2)c(-c2ccc3ncnn3c2)[nH]1 [Compound 115, 6-(2-Ethyl-4-(m-tolyl)-1H-imidazol-5-yl)-[1,2,4]triazolo[1,5-a]pyridine] | 160 | 750 | – |
| Cc1nc(-c2cc(F)c(F)c(F)c2)c(-c2ccc3cn[nH]c3c2)[nH]1 [Compound 91, 6-(2-Methyl-4-(3,4,5-trifluorophenyl)-1H-imidazol-5-yl)-1H-indazole] | 390 | 2230 | – |

Second part, led by results:

| IC50 [2] [nM] | IC50 [3] [nM] | SMILES | IC50 [1] [nM] |
| --- | --- | --- | --- |
| 40 | 240 | Cc1nc(-c2cc(F)c(F)cc2F)c(-c2ccc3ncsc3c2)[nH]1 [Compound 99, 6-(2-Methyl-4-(2,4,5-trifluorophenyl)-1H-imidazol-5-yl)benzo[d]thiazole] | – |
| 10 | 20 | Cc1cc(-c2nc[nH]c2-c2ccc3cn[nH]c3c2)ccc1F [Compound 4, 6-(4-(4-Fluoro-3-methylphenyl)-1H-imidazol-5-yl)-1H-indazole] | – |
| 25.3 | 134 | Cc1cc(-c2ncsc2-c2ccc3[nH]ncc3c2)ccc1F [Compound 156, 4-(4-fluoro-3-methylphenyl)-5-(1H-indazol-5-yl)thiazole] | – |
| 90 | 800 | Cc1nc(-c2ccc(F)c(C)c2)c(-c2ccc3[nH]ncc3c2)[nH]1 [Compound 71, 5-(4-(4-Fluoro-3-methylphenyl)-2-methyl-1H-imidazol-5-yl)-1H-indazole] | – |

Source: patent publication US10287295B2, “TGF-β inhibitors” (Rigel Pharmaceuticals, Inc., priority 2015, dated 2019)
